Measurements: patent US6737383B1, “Herbicidal oxadiazolidines” (priority 1999, dated 2004)

Assays:
duck salad = assay: Test B flood test duck salad; type: in vivo, Heteranthera limosa
Outline: (§1)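 Plants were grown to the 2-leaf stage before treatment with test chemical, then held in a greenhouse for twelve to sixteen days. Injury was visually rated against untreated controls on a 0–10 scale, where 0 is no effect and 10 is complete control.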

surinam grass = assay: Test B pre/postemergence surinam grass; type: in vivo, Brachiaria decumbens
Outline: (§2)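 Test chemicals in a non-phytotoxic solvent mixture with surfactant were sprayed preemergence onto planted seeds and postemergence onto plants 2 to 18 cm tall (1- to 4-leaf stage). After twelve to sixteen days in a greenhouse, injury was visually rated against untreated controls from 0 (no effect) to 10 (complete control).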

cocklebur = assay: Test B pre/postemergence cocklebur; type: in vivo, Xanthium strumarium
Outline: as §2

rape = assay: Test B pre/postemergence rape; type: in vivo, Brassica napus
Outline: as §2

bedstraw = assay: Test B pre/postemergence bedstraw; type: in vivo, Galium aparine
Outline: as §2

purple nutsedge = assay: Test B pre/postemergence purple nutsedge; type: in vivo, Cyperus rotundus
Outline: as §2

morningglory = assay: Test B pre/postemergence morningglory; type: in vivo, Ipomoea hederacea
Outline: as §2

wild oat = assay: Test B pre/postemergence wild oat; type: in vivo, Avena fatua
Outline: as §2

velvetleaf = assay: Test B pre/postemergence velvetleaf; type: in vivo, Abutilon theophrasti
Outline: as §2

bamyardgrass = assay: Test B flood test barnyardgrass; type: in vivo, Echinochloa crus-galli
Outline: as §1

rice = assay: Test B flood test rice; type: in vivo, Oryza sativa
Outline: as §1

wheat = assay: Test B pre/postemergence wheat; type: in vivo, Triticum aestivum
Outline: as §2

smallflower flatsedge = assay: Test B flood test smallflower flatsedge; type: in vivo, Cyperus difformis
Outline: as §1

pigweed = assay: Test B pre/postemergence pigweed; type: in vivo, Amaranthus retroflexus
Outline: as §2

corn = assay: Test B pre/postemergence corn; type: in vivo, Zea mays
Outline: as §2

blackgrass = assay: Test B pre/postemergence blackgrass; type: in vivo, Alopecurus myosuroides
Outline: as §2

[1] = Postemergence, Rate 62 g/ha, scale 0 to 10, 0 is no effect, 10 is complete control
[2] = Rate 31 g/ha, Postemergence section (flood test species), scale 0 to 10
[3] = Rate 125 g/ha, Postemergence section (flood test species), scale 0 to 10, 0 no effect, 10 complete control
[4] = flood test, listed under Postemergence, Rate 250 g/ha, scale 0 to 10, 0 no effect, 10 complete control
[5] = Postemergence, Rate 250 g/ha, scale 0 to 10, 0 no effect, 10 complete control
[6] = Preemergence, Rate 31 g/ha, visual rating, scale 0 to 10 (0 no effect, 10 complete control)
[7] = Preemergence, Rate 62 g/ha, scale 0 to 10, 0 is no effect, 10 is complete control
[8] = Preemergence, Rate 125 g/ha, scale 0 to 10 (0 no effect, 10 complete control)
[9] = Preemergence, Rate 250 g/ha, scale of 0 to 10 where 0 is no effect and 10 is complete control
[10] = Rate 31 g/ha, Postemergence, scale 0 to 10
[11] = Rate 125 g/ha, Postemergence, scale 0 to 10, 0 no effect, 10 complete control

## CC(C)N(C(=O)n1oc(=O)n(-c2ccc(F)cc2F)c1=O)c1ccc(F)cc1F [Compound 22]
Duck salad; [1]
  Ducksalad plant response rating: 0
Duck salad; [2]
  Ducksalad plant response rating: 0
Duck salad; [3]
  Ducksalad plant response rating: 0
Duck salad; [4]
  Ducksalad plant response rating: 0
Surinam grass; [1]
  B. signalgrass plant response rating: 0
Surinam grass; [5]
  B. signalgrass plant response rating: 2
Surinam grass; [6]
  B. signalgrass plant response rating: 0
Surinam grass; [7]
  Plant response rating, B. signalgrass: 0
Surinam grass; [8]
  Plant response rating, B. signalgrass: 2
Surinam grass; [9]
  Plant response rating, B. signalgrass: 4
Surinam grass; [10]
  B. signalgrass plant response rating: 0
Surinam grass; [11]
  B. signalgrass plant response rating: 0
cocklebur; [1]
  Cocklebur plant response rating: 0
cocklebur; [5]
  Cocklebur plant response rating: 0
cocklebur; [6]
  Cocklebur plant response rating: 0
cocklebur; [7]
  Plant response rating, Cocklebur: 0
cocklebur; [8]
  Plant response rating, Cocklebur: 0
cocklebur; [9]
  Plant response rating, Cocklebur: 0
cocklebur; [10]
  Cocklebur plant response rating: 0
cocklebur; [11]
  Cocklebur plant response rating: 0
rape; [1]
  Rape plant response rating: 0
rape; [5]
  Rape plant response rating: 0
rape; [6]
  Rape plant response rating: 0
rape; [7]
  Plant response rating, Rape: 0
rape; [8]
  Plant response rating, Rape: 3
rape; [9]
  Plant response rating, Rape: 3
rape; [10]
  Rape plant response rating: 0
rape; [11]
  Rape plant response rating: 0
bedstraw; [1]
  Bedstraw plant response rating: 1
bedstraw; [5]
  Bedstraw plant response rating: 4
bedstraw; [6]
  Bedstraw plant response rating: 0
bedstraw; [7]
  Plant response rating, Bedstraw: 0
bedstraw; [8]
  Plant response rating, Bedstraw: 0
bedstraw; [9]
  Plant response rating, Bedstraw: 4
bedstraw; [10]
  Bedstraw plant response rating: 0
bedstraw; [11]
  Bedstraw plant response rating: 2
Purple nutsedge; [1]
  Nutsedge plant response rating: 0
Purple nutsedge; [5]
  Nutsedge plant response rating: 0
Purple nutsedge; [6]
  Nutsedge plant response rating: 0
Purple nutsedge; [7]
  Plant response rating, Nutsedge: 0
Purple nutsedge; [8]
  Plant response rating, Nutsedge: 0
Purple nutsedge; [9]
  Plant response rating, Nutsedge: 0
Purple nutsedge; [10]
  Nutsedge plant response rating: 0
Purple nutsedge; [11]
  Nutsedge plant response rating: 0
morningglory; [1]
  Morningglory plant response rating: 0
morningglory; [5]
  Morningglory plant response rating: 2
morningglory; [6]
  Morningglory plant response rating: 0
morningglory; [7]
  Plant response rating, Morningglory: 0
morningglory; [8]
  Plant response rating, Morningglory: 0
morningglory; [9]
  Plant response rating, Morningglory: 0
morningglory; [10]
  Morningglory plant response rating: 0
morningglory; [11]
  Morningglory plant response rating: 2
Wild oat; [1]
  Wild oats plant response rating: 0
Wild oat; [5]
  Wild oats plant response rating: 1
Wild oat; [6]
  Wild oats plant response rating: 0
Wild oat; [8]
  Plant response rating, Wild oats: 0
Wild oat; [9]
  Plant response rating, Wild oats: 0
Wild oat; [11]
  Wild oats plant response rating: 0
velvetleaf; [1]
  Velvetleaf plant response rating: 0
velvetleaf; [5]
  Velvetleaf plant response rating: 0
velvetleaf; [6]
  Velvetleaf plant response rating: 0
velvetleaf; [7]
  Plant response rating, Velvetleaf: 0
velvetleaf; [8]
  Plant response rating, Velvetleaf: 0
velvetleaf; [9]
  Plant response rating, Velvetleaf: 1
velvetleaf; [11]
  Velvetleaf plant response rating: 0
bamyardgrass; [1]
  Barnyardgrass plant response rating: 0
bamyardgrass; [2]
  Barnyardgrass plant response rating: 0
bamyardgrass; [3]
  Barnyardgrass plant response rating: 0
bamyardgrass; [4]
  Barnyardgrass plant response rating: 0
rice; [1]
  Rice plant response rating: 0
rice; [2]
  Rice plant response rating: 0
rice; [3]
  Rice plant response rating: 0
rice; [4]
  Rice plant response rating: 0
wheat; [1]
  Wheat plant response rating: 0
wheat; [5]
  Wheat plant response rating: 0
wheat; [6]
  Wheat plant response rating: 0
wheat; [7]
  Plant response rating, Wheat: 0
wheat; [8]
  Plant response rating, Wheat: 0
wheat; [9]
  Plant response rating, Wheat: 0
wheat; [11]
  Wheat plant response rating: 0
Smallflower flatsedge; [1]
  S. Flatsedge plant response rating: 0
Smallflower flatsedge; [3]
  S. Flatsedge plant response rating: 0
Smallflower flatsedge; [4]
  S. Flatsedge plant response rating: 4
pigweed; [1]
  Redroot pigweed plant response rating: 0
pigweed; [5]
  Redroot pigweed plant response rating: 2
pigweed; [6]
  Redroot pigweed plant response rating: 0
pigweed; [7]
  Plant response rating, Redroot pigweed: 0
pigweed; [8]
  Plant response rating, Redroot pigweed: 2
pigweed; [9]
  Plant response rating, Redroot pigweed: 5
pigweed; [10]
  Redroot pigweed plant response rating: 0
pigweed; [11]
  Redroot pigweed plant response rating: 1
corn; [1]
  Corn plant response rating: 0
corn; [5]
  Corn plant response rating: 0
corn; [6]
  Corn plant response rating: 0
corn; [7]
  Plant response rating, Corn: 0
corn; [8]
  Plant response rating, Corn: 0
corn; [9]
  Plant response rating, Corn: 2
corn; [10]
  Corn plant response rating: 0
corn; [11]
  Corn plant response rating: 0
blackgrass; [1]
  Blackgrass plant response rating: 1
blackgrass; [5]
  Blackgrass plant response rating: 3
blackgrass; [6]
  Blackgrass plant response rating: 0
blackgrass; [7]
  Plant response rating, Blackgrass: 0
blackgrass; [8]
  Plant response rating, Blackgrass: 4
blackgrass; [9]
  Plant response rating, Blackgrass: 6
blackgrass; [10]
  Blackgrass plant response rating: 0
blackgrass; [11]
  Blackgrass plant response rating: 1
